Laboratory results: ChEMBL document CHEMBL6109120, “Discovery of Novel SIK2/3 Inhibitors for the Potential Treatment of MEF2C+ Acute Myeloid Leukemia (AML)” (J Med Chem, 2025)
pIC50: −log10 of the molar value.

Columns and labels:
[1] = biological target: T1, Serine/threonine-protein kinase TBK1 (Homo sapiens, UniProt Q9UHD2)
T1 sequence (Q9UHD2 whole entry): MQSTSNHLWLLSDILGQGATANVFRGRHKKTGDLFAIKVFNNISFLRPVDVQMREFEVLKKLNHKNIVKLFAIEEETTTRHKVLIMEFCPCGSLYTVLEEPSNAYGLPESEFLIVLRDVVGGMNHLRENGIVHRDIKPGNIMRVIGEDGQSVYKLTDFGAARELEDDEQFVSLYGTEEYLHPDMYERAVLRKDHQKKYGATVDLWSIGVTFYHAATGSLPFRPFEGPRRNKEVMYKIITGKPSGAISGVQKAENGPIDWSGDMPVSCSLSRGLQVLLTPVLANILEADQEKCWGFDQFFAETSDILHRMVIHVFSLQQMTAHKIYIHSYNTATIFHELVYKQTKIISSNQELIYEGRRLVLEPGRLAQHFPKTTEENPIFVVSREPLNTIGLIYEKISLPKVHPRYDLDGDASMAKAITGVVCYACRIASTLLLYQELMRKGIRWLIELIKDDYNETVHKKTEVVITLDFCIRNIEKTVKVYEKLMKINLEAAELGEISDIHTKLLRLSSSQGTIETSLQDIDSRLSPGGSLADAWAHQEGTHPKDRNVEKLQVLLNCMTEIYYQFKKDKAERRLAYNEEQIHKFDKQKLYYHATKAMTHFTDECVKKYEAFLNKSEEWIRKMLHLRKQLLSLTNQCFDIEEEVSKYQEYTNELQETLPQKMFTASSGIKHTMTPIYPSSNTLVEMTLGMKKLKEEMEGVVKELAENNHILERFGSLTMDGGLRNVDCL
Description: Binding affinity to human TBK1 by KINOMEscan assay

[2] = biological target: Mast/stem cell growth factor receptor Kit (Homo sapiens, UniProt P10721); experiment: Binding affinity to human KIT by KINOMEscan assay
Chain of Mast/stem cell growth factor receptor Kit (P10721 whole entry): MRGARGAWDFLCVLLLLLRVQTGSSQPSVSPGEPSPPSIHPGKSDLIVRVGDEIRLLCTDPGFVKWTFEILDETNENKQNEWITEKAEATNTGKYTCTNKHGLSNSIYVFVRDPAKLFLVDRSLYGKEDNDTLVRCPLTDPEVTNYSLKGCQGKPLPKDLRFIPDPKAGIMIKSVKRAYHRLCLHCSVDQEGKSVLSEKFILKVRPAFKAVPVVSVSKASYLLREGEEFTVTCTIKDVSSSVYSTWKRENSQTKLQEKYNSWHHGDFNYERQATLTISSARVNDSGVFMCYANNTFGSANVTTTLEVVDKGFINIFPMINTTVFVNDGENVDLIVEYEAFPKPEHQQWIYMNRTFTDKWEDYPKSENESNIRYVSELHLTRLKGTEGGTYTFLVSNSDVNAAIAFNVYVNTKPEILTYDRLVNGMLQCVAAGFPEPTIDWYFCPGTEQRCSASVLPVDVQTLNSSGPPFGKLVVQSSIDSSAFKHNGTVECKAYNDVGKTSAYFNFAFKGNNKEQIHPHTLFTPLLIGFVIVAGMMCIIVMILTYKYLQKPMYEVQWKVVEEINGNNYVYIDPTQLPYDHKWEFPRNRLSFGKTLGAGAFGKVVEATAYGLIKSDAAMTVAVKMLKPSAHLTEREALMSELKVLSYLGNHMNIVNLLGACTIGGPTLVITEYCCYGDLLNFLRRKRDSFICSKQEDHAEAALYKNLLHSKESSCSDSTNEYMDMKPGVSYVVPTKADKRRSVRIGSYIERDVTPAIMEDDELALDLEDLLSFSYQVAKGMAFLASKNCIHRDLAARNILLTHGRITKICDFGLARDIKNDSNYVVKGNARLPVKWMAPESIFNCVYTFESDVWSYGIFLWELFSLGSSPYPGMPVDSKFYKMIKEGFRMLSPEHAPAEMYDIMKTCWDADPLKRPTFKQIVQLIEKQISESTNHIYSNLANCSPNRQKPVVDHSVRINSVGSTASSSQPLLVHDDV

[3] = biological target: T2, Serine/threonine-protein kinase ULK2 (Homo sapiens, UniProt Q8IYT8)
T2 sequence (Q8IYT8 whole entry): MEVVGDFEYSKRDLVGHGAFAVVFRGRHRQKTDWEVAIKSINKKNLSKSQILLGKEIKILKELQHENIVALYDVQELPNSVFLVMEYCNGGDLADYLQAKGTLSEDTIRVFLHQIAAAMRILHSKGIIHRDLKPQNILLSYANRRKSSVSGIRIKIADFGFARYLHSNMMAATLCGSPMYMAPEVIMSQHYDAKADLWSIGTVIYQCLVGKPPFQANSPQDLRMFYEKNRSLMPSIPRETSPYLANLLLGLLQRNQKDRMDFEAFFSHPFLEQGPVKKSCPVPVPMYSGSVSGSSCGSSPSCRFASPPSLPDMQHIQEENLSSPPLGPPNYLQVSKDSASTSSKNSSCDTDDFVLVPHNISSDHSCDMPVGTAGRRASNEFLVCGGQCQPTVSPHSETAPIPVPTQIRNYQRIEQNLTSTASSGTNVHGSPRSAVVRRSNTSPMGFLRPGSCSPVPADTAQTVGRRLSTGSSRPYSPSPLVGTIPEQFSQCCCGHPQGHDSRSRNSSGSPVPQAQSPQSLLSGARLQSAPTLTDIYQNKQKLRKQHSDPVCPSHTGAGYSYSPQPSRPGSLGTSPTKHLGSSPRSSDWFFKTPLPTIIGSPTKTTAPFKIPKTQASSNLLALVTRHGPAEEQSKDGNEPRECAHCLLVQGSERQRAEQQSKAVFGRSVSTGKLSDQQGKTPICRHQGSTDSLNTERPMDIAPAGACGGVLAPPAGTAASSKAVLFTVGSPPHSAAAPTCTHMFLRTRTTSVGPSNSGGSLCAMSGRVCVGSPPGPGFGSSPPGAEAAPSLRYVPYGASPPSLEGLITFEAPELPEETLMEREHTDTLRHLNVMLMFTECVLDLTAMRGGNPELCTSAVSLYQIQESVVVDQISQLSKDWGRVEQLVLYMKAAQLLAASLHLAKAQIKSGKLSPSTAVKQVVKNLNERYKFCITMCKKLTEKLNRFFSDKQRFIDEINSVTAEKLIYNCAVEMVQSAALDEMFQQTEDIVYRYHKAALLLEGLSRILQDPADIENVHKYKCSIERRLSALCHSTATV
Description: Binding affinity to human ULK2 by KINOMEscan assay

pIC50 [1]: 6.64
pIC50 [2]: 6.23
pIC50 [3]: 5.68
Structure (SMILES): COc1nc(-c2cc(-c3cnn(C)c3)cnc2N)cc2c1C(=O)N(CC(F)(F)F)CC2
